Experimental data from ChEMBL document CHEMBL1201862, “PubChem BioAssay data set” (2004).
Calls of active or inactive are those of the source.

Assays:
[1] = inhibitors of cytokine-induced nitrite release, dose response, cell-based, Griess absorbance, INS-1E, dry powder, set 3 (AID 488870); format: functional; conditions: Rattus norvegicus
INS1 = assay: protection from cytokine-driven beta-cell apoptosis, dose response, JC-1 fluorescence, INS-1E, dry powder, set 2 (AID 488867); format: functional, cell-based; conditions: Rattus norvegicus
Streptococcus = assay: Group A Streptococcus viability loss, dose response, counter-screen for streptokinase expression inhibitor project, luminescence, BacTiterGlo (AID 1915); format: functional, organism-based;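 note: potency for reduction of bacterial viability or growth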
[2] = Luminescence Cell-Based Dose Retest to Confirm Inhibitors of Cancer Stem Cells. [Related pubchem assays (depositor defined):AID2717, AID2721]; format: functional; conditions: Homo sapiens
[3] = molecular target: Neurotensin receptor type 1 (Homo sapiens, UniProt P30989); format: functional;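 note: Image-based confirmatory dose-response assay measuring agonist activity at NTR1; NTR1-expressing U2OS osteosarcoma cells imaged for beta-arrestin GFP spot formation; agonist potency where compounds increase beta-arrestin recruitment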
Fatty acid synthase [4] = molecular target: T1, Fatty acid synthase (Homo sapiens, UniProt P49327); assay: FAS thioesterase domain inhibitors, dose response, biochemical, kinetic fluorescence intensity (AID 624326); format: functional;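 note: rate of fluorescence rise from hydrolysis of a fluorogenic O-methyl fluorescein ester substrate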
[5] = molecular target: T2, Endoribonuclease toxin MazF (Escherichia coli K-12, UniProt P0AE70); assay: MazF toxin RNase activators, dose response, biochemical, fluorescence, single-stranded RNA substrate, uHTS hits (AID 588481); format: functional
[6] = HEp-2 cell cytotoxicity, dose response, cytotoxicity control for RSV inhibitor project, HTS (AID 2410); format: functional; conditions: human respiratory syncytial virus
[7] = molecular target: T2, Endoribonuclease toxin MazF; assay: fluorescent RNA oligo signal without MazF, dose response, counter-screen for MazEF activator project, biochemical, fluorescence, single-stranded RNase substrate (AID 588502); format: functional
Streptokinase A = molecular target: T3, Streptokinase A (Streptococcus pyogenes serotype M1, UniProt P10520); assay: S. pyogenes streptokinase expression inhibitors, potency, dose response, plasminogen activation absorbance, OD405 (AID 1914); format: functional, Streptococcus pyogenes M1 GAS;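 note: secreted streptokinase activity via plasminogen activation per viability signal from cell pellet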
T3 sequence (P10520 whole entry): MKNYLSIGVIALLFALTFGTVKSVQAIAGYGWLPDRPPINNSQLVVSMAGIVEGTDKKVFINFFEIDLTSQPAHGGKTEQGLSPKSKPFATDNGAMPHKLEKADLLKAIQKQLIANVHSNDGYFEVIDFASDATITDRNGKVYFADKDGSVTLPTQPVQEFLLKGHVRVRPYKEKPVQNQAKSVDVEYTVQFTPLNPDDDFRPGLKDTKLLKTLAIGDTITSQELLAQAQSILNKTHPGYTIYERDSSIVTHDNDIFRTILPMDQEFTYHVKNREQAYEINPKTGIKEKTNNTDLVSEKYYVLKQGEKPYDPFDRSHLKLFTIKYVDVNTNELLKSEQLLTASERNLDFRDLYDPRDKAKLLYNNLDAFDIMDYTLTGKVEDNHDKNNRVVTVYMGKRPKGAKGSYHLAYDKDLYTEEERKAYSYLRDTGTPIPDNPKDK

Fatty acid synthase [8] = molecular target: T1, Fatty acid synthase; assay: FAS thioesterase domain inhibitors, dose response, biochemical, endpoint fluorescence intensity, uHTS hits (AID 624327); format: functional;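 note: fluorescence from hydrolysis of an O-methyl fluorescein acyl ester substrate by the enzyme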
[9] = system: Streptococcus sp. 'group A'; assay: growth inhibition of control SK(-) GAS strain, dose response, counter-screen for streptokinase expression inhibitor project, luminescence, kanamycin, BacTiterGlo, confirmation (AID 1900); format: functional, organism-based
[10] = A2780 ovarian cancer cell cytotoxicity, dose response, cytotoxicity control, plate reader, dry powder samples (AID 743046); format: functional, cell-based
[11] = Luminescence Cell-Based Dose Response HTS to Identify Inhibitors of 5'UTR Stem-Loop Driven Prion Protein mRNA Translation in H4 Neuroglioblastoma Cells. [Related pubchem assays: 1827 (Project Summary), 1813 (Primary HTS)]; format: functional
[12] = cytotoxicity in OVCAR4 cells, dose response, cytotoxicity control for PAX8 inhibitor project, cell-based, plate reader, dry powder, SA11 (AID 743150); format: functional; conditions: OVCAR-4
[13] = molecular target: Nucleotide-binding oligomerization domain-containing protein 2 (Homo sapiens, UniProt Q9HC29); assay: NOD2 signaling inhibitors, cell-based, luminescence, uHTS, HEK293 (AID 1566); format: functional
[14] = IOSE-T80 ovarian epithelial cell cytotoxicity, dose response, cytotoxicity control for PAX8 inhibitor project, plate reader, dry powder samples (AID 743045); format: functional, cell-based
[15] = cytotoxicity in COV434 cells, dose response, cytotoxicity control for PAX8 inhibitor project, cell-based, plate reader, dry powder, SA7 (AID 743145); format: functional
[16] = molecular target: T4, Replicative DNA helicase DnaB (Mycobacterium tuberculosis, UniProt P9WMR3); assay: DnaB intein splicing inhibitors, dose response, biochemical, cell-free fluorescence (AID 449749); format: functional
T4 sequence (P9WMR3 whole entry): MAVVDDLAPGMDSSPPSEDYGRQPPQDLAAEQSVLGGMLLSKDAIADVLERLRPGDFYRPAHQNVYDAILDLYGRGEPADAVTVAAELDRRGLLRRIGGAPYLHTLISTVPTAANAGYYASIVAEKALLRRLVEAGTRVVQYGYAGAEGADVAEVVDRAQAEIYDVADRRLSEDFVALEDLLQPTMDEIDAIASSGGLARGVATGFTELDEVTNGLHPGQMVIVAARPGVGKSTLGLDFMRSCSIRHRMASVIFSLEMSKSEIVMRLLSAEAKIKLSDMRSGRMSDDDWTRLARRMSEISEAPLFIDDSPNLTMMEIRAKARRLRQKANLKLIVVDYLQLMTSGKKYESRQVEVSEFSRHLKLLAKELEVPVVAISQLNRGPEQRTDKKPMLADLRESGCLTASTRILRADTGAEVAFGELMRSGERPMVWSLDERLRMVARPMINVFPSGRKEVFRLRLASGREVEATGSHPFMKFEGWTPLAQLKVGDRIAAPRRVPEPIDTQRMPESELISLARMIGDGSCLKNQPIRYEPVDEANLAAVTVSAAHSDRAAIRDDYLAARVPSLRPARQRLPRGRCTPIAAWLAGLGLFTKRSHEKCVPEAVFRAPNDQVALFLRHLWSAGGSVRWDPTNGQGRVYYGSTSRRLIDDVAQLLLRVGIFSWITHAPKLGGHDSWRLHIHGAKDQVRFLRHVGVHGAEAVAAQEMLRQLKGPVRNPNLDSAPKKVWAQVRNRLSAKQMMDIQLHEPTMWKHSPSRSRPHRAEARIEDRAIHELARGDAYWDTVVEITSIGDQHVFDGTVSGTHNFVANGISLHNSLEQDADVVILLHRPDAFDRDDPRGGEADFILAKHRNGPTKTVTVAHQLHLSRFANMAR

[17] = molecular target: ATP-binding cassette sub-family B member 6 (Homo sapiens, UniProt Q9NP58); assay: ABCB6 transporter inhibitors, dose response, K562-ABCB6 cells, flow cytometry, cherry pick 1 (AID 623955); format: functional; conditions: read-out: EC50_MICROM
[18] = Shn3 3'UTR reporter inhibitors, dose response, cell-based, Clone20 osteoblasts, firefly luciferase, cherry-picked (AID 624132); format: functional;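 note: firefly luciferase luminescence from reporter carrying the Shn3 3'UTR in osteoblasts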
CHO = assay: cytotoxicity in TLR9-MyD88 CHO cells, dose response, cytotoxicity control for TLR9-MyD88 binding inhibitor project, cell-based, luminescence (AID 588339); format: functional, hamster; conditions: Cricetulus griseus;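 note: CHO cells stably coexpressing TLR9 and MyD88 fusions from primary screen; compound exposure lasted 48 hours before viability readout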
[19] = molecular target: Heat shock protein HSP 90-alpha (Homo sapiens, UniProt P07900); format: functional, organism-based
[20] = PAX5 activity inhibitors, dose response, selectivity assay for PAX8 inhibitor project, cell-based, plate reader, dry powder samples (AID 743047); format: functional;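 note: HEK293 cells carrying a Pax5 driven CD19 promoter luciferase reporter; potency of inhibitors that lower reporter luminescence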
[21] = IGROV1 ovarian cancer cell cytotoxicity, dose response, PAX8 inhibitor project, plate reader, dry powder samples (AID 743043); format: functional, cell-based; conditions: IGROV-1
[22] = cytotoxicity in COV362 ovarian cancer cells, dose response, cytotoxicity control for PAX8 inhibitor project, cell-based, plate reader, dry powder, SA12 (AID 743144); format: functional
HEK293 [23] = assay: NOD1 signaling inhibitors, primary screen, cell-based, luminescence, uHTS (AID 1578); format: functional; conditions: Homo sapiens
HEK293 [24] = assay: cells; format: functional, cell-based; conditions: Homo sapiens
[25] = inhibitors of SNCA 5'UTR-driven reporter translation, confirmation, H4 neuroglioma cells, luminescence (AID 1988); format: functional, cell-based
HEK293 [26] = assay: NOD2 signaling inhibitors in MDP-stimulated cells, cell-based, uHTS, luminescence (AID 2001); format: functional; conditions: Homo sapiens
Protein RecA = molecular target: T5, Protein RecA (Mycobacterium tuberculosis, UniProt P9WHJ3); assay: Fluorescence Cell-Free Homogeneous Dose Retest to Identify Inhibitors of RecA-Intein Splicing Activity. [Related pubchem assays (depositor defined):AID2097, AID2223, AID489010, AID492950]; format: functional
T5 sequence (P9WHJ3 whole entry): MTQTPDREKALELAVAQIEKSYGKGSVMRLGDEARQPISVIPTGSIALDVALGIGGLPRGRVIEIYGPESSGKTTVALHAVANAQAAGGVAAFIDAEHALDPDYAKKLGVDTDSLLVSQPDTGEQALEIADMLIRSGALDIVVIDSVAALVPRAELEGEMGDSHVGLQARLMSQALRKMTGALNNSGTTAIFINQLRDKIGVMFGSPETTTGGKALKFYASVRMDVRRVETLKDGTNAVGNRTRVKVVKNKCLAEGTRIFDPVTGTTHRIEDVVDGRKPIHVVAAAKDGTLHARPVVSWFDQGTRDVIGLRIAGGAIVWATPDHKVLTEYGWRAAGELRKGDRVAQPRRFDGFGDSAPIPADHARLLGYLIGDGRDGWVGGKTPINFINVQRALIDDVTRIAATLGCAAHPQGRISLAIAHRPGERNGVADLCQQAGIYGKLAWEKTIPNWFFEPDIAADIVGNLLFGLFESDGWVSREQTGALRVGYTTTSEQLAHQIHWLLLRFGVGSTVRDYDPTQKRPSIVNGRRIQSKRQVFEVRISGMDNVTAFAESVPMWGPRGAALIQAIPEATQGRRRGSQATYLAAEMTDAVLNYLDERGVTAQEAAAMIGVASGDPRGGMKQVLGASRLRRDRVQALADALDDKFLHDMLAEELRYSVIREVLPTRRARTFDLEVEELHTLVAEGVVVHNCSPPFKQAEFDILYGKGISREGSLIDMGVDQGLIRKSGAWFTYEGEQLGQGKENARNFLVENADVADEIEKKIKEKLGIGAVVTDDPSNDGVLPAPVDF

[27] = PAX2 cell-based inhibition, dose response, selectivity assay for PAX8 inhibitor project, plate reader, dry powder samples (AID 743048); format: functional;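 note: HEK293 cells carrying a WT1 promoter luciferase reporter driven by expressed Pax2; potency is for inhibition of Pax2 driven reporter signal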
[28] = control 3'UTR Renilla luciferase suppression, dose response, counter-screen for Shn3 inhibitor project, cell-based, Clone20-Shn3RL, cherry-picked (AID 624133); format: functional
[29] = cytotoxicity in OV-90 ovarian cancer cells, dose response, PAX8 inhibitor project, cell-based, plate reader, dry powder, SA8 (AID 743149); format: functional
HEK293 [30] = assay: cells; format: functional, cell-based; conditions: Homo sapiens; remark: listed apart in the source
Beta Lactamase = Beta Lactamase (Pseudomonas aeruginosa, UniProt Q932Y6); assay: beta-lactamase reporter inhibitor potency, dose response, artefact control for TLR9-MyD88 binding inhibitor project, BLA reporter cells, FRET fluorescence (AID 588341); format: cell-based;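 note: cell based assay in CHO-K1 cells stably expressing beta-lactamase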
[31] = HepG2 cell cytotoxicity, dose response, cytotoxicity control for Shn3 inhibitor project, CellTiter-Glo, cherry-picked (AID 624134); format: functional, cell-based
Escherichia coli = assay: microbe, parasite or virus in culture
Paired box protein Pax-8 = Paired box protein Pax-8 (Homo sapiens, UniProt Q06710); assay: inhibitors of PAX8-driven TPO luciferase reporter, dose response, RMG-I cells, cherry-pick (AID 687027); format: functional, cell-based;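 note: luciferase reporter driven by Pax8 target thyroperoxidase promoter measured by SteadyGlo luminescence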
[32] = inhibitors of firefly luciferase expression or activity, dose response, H4 neuroglioma cells, luminescence (AID 1990); format: functional, cell-based
[33] = cytotoxicity dependent on PAX8, dose response, cell-based, plate reader, dry powder (AID 743049); format: functional
[34] = NIH:OVCAR-3 ovarian cancer cell cytotoxicity, dose response, PAX8 inhibitor project, plate reader, dry powder samples (AID 743044); format: functional, cell-based

T1 sequence (P49327 whole entry, the tested form may be a part): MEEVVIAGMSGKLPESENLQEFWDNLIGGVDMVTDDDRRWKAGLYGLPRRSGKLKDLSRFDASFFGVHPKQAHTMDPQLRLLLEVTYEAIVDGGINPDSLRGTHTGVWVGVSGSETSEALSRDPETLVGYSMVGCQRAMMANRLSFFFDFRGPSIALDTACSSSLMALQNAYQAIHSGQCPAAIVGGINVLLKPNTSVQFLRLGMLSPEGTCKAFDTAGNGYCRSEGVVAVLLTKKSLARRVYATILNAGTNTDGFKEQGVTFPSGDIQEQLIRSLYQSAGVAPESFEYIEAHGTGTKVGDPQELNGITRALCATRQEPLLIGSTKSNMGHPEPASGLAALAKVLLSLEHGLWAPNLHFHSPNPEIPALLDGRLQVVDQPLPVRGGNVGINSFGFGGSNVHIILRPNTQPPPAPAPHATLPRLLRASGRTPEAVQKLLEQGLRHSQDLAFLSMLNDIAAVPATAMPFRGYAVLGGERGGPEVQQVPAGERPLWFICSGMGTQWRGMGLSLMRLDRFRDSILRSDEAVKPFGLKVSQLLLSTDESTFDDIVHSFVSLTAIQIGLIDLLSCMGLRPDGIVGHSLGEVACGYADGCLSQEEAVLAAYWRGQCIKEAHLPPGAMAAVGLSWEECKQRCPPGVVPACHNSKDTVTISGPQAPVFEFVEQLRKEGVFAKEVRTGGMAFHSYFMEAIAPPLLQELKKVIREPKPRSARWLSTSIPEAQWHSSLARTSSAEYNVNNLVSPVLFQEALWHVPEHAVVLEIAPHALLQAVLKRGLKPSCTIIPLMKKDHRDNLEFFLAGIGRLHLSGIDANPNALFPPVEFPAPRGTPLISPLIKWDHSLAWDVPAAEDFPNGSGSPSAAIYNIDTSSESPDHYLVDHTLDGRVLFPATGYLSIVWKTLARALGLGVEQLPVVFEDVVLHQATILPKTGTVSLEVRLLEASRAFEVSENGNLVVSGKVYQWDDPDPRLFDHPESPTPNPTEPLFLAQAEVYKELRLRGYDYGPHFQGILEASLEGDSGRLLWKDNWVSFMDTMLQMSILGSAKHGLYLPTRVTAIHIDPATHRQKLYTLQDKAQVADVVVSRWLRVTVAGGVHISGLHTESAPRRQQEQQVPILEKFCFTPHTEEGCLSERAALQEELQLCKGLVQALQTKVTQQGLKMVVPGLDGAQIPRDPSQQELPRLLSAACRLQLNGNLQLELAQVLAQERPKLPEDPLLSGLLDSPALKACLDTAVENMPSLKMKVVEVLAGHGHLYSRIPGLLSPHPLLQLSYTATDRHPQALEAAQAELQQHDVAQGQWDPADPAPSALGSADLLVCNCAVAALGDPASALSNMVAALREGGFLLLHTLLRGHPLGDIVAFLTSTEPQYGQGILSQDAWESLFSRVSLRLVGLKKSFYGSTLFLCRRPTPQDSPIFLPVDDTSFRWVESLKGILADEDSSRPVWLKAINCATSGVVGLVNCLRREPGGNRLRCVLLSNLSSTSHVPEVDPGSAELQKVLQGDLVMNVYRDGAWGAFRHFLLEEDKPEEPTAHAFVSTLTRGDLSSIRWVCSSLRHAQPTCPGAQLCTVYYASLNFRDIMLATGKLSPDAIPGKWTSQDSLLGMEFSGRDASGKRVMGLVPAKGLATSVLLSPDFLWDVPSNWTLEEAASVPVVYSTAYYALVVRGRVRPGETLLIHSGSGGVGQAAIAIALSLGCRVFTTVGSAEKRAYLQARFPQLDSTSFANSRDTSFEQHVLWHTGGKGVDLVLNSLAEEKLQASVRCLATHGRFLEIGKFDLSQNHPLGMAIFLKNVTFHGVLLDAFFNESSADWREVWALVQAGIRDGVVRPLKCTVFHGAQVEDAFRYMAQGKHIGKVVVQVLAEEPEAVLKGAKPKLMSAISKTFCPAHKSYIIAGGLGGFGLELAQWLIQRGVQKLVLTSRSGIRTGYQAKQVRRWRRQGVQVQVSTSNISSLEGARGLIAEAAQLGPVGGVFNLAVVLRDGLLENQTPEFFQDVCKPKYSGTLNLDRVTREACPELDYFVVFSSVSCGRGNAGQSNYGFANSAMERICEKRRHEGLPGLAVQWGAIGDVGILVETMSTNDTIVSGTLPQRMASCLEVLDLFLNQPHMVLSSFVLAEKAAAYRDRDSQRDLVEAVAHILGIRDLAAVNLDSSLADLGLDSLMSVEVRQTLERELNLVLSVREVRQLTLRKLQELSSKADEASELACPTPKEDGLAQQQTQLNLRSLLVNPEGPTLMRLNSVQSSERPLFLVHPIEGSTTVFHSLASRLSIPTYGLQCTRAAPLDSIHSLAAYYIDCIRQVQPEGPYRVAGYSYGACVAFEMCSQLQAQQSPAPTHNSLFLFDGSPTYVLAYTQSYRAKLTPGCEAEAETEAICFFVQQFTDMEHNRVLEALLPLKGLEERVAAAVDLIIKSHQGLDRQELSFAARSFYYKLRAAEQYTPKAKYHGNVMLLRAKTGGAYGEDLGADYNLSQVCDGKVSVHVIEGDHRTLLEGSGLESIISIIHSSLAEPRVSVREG
T2 sequence (P0AE70 whole entry): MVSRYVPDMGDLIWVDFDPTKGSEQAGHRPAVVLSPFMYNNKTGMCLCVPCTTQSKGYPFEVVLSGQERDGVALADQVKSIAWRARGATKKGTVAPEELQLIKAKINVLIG
Nucleotide-binding oligomerization domain-containing protein 2, sequence (Q9HC29 whole entry, the tested form may be a part): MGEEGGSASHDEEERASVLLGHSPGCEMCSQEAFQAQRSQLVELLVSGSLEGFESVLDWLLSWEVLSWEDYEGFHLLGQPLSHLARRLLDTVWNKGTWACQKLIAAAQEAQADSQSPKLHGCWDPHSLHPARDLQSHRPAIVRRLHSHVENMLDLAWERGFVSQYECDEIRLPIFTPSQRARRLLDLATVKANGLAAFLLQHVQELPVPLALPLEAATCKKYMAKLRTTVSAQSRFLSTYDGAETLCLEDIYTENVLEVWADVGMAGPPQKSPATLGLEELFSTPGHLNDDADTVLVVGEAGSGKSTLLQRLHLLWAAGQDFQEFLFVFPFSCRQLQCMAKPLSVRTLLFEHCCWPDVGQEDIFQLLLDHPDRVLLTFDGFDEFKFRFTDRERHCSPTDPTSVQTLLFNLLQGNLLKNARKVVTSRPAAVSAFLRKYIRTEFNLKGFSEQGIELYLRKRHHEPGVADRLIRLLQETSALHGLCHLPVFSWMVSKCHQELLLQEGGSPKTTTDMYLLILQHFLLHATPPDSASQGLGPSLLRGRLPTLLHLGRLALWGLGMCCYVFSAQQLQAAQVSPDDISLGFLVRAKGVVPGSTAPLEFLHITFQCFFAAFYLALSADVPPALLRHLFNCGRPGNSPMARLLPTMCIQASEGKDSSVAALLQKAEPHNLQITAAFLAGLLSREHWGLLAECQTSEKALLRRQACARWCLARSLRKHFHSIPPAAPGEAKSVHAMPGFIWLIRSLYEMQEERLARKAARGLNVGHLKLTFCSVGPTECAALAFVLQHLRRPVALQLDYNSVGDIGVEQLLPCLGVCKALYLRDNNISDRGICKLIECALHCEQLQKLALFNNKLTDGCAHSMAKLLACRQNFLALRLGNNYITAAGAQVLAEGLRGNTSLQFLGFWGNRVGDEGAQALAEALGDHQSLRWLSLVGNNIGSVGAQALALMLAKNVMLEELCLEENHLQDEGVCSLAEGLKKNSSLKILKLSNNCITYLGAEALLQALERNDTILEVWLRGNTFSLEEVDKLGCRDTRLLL
Beta Lactamase, sequence (Q932Y6 whole entry): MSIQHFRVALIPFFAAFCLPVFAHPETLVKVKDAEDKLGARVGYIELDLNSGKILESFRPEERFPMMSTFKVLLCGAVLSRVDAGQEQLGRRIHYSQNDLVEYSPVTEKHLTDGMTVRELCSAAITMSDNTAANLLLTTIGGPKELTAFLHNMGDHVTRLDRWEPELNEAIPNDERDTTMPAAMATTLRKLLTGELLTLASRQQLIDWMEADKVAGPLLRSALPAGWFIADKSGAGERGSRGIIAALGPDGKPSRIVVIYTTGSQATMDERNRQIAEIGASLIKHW
Paired box protein Pax-8, sequence (Q06710 whole entry): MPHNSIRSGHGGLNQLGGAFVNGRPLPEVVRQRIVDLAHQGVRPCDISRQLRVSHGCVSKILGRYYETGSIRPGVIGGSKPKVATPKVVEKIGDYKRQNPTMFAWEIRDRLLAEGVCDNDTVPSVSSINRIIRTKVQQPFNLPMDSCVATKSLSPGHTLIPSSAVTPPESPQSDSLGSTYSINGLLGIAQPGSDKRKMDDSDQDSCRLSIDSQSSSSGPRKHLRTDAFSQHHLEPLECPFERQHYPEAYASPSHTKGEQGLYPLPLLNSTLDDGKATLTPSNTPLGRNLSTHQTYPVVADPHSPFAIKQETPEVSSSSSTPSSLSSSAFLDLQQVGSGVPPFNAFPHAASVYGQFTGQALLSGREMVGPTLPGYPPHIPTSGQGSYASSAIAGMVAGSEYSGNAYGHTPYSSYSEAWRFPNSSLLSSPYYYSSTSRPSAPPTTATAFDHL
Neurotensin receptor type 1, sequence (P30989 whole entry, the tested form may be a part): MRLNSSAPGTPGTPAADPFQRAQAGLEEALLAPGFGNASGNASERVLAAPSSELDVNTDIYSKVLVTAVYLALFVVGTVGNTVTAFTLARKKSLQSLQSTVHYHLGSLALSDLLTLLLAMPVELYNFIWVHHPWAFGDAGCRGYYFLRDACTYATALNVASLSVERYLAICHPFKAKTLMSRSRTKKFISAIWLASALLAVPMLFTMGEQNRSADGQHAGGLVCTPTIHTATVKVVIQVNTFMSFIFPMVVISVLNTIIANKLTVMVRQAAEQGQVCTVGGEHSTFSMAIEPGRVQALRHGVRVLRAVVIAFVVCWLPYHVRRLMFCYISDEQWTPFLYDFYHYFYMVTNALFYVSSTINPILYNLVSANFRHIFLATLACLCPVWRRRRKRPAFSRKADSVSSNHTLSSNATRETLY

## C[C@@H]1CN([C@@H](C)CO)C(=O)c2cccc(NC(=O)Nc3cccc4ccccc34)c2O[C@H]1CN(C)S(=O)(=O)c1ccc2c(c1)OCCCO2
[1]
  AC50: 32.2 µM (active)
INS1
  AC50: 253 µM (active)

## O=[N+]([O-])c1ccc(-c2nc(Nc3cccc(O)c3)c3ccccc3n2)cc1
Streptococcus
  EC50: 8.36 µM (active)
[2]
  AC50: 3.24 µM (active)
[3]
  EC50: 15.3 µM (active)
Fatty acid synthase [4]
  IC50: 13.2 µM (active)
[5]
  EC50: > 99 µM (inactive)
[6]
  CC50: 22 µM (active)
[7]
  EC50: > 99 µM (inactive)
Streptokinase A
  EC50: > 150 µM (not active)
Fatty acid synthase [8]
  IC50: 12.9 µM (active)
[9]
  EC50: 11.4 µM (active)

## Cc1cccc(CS(=O)(=O)c2ncc(Cl)c(C(=O)Nc3ccc(F)cc3)n2)c1
[10]
  AC50: 23.8 µM (active)
[11]
  EC50: 22 µM (active)
[12]
  AC50: 10.5 µM (active)
[13]
  EC50: > 20 µM (inactive)
[14]
  AC50: 10.5 µM (active)
Fatty acid synthase [4]
  IC50: 19.4 µM (active)
[15]
  AC50: 4.11 µM (active)
[16]
  AC50: 3.25 µM (active)
[17]
  EC50: 80.4 µM (active)
[18]
  AC50: 0.55 µM (active)
CHO
  IC50: 2.72 µM (active)
[19]
  AC50: 1.73 µM (active)
[20]
  AC50: 31.4 µM (active)
[21]
  AC50: 9.96 µM (active)
[22]
  AC50: 7.95 µM (active)
HEK293 [23]
  EC50: 8.42 µM (active)
HEK293 [24]
  IC50: > 20 µM (inactive)
[25]
  EC50: 12.4 µM (active)
HEK293 [26]
  IC50: 10.8 µM (inactive)
Protein RecA
  EC50: 2.19 µM (active)
[27]
  AC50: 14.8 µM (active)
[28]
  AC50: 6.54 µM (active)
[29]
  AC50: 8.4 µM (active)
HEK293 [30]
  IC50: > 20 µM (inactive)
Beta Lactamase
  IC50: 9.48 µM (active)
Fatty acid synthase [8]
  IC50: 9.64 µM (active)
[31]
  AC50: 29.2 µM (active)
Escherichia coli
  AC50: 25.5 µM (active)
Paired box protein Pax-8
  AC50: 9.28 µM (active)
[32]
  EC50: 12.2 µM (active)
[33]
  AC50: 12.7 µM (active)
[34]
  AC50: 7.88 µM (active)
